Test results taken from BindingDB's records for doi:10.1021/jm030354b (Millennium Pharmaceuticals, 2004).

Experiments:
[1] = Inhibition of human platelet (h-PRP) aggregation induced by 20 uM ADP with PPACK
[2] = target: T1, Integrin alpha-IIb/beta-3 (Homo sapiens, UniProt P08514+P05106); experiment: Inhibition of platelet aggregation induced by 20 uM adenosine 5-diphosphate (ADP) in citreated human platelet rich plasma (h-PRP)
[3] = Inhibition of citreated human (h-PRP) platelet aggregation induced by 5 uM TRAP6
[4] = Inhibition of human platelet (h-PRP) aggregation induced by 5 uM TRAP6 with PPACK
[5] = Inhibition of citreated human platelet (h-PRP) aggregation induced by 4 ug/mL collagen
[6] = Inhibition of human platelet (h-PRP) aggregation induced by 4 ug/mL collagen with PPACK
[7] = target: T1, Integrin alpha-IIb/beta-3; experiment: Inhibition of human platelet (h-PRP) aggregation induced by 20 uM ADP with PPACK

T1 sequence (P05106 27-788 limits assumed): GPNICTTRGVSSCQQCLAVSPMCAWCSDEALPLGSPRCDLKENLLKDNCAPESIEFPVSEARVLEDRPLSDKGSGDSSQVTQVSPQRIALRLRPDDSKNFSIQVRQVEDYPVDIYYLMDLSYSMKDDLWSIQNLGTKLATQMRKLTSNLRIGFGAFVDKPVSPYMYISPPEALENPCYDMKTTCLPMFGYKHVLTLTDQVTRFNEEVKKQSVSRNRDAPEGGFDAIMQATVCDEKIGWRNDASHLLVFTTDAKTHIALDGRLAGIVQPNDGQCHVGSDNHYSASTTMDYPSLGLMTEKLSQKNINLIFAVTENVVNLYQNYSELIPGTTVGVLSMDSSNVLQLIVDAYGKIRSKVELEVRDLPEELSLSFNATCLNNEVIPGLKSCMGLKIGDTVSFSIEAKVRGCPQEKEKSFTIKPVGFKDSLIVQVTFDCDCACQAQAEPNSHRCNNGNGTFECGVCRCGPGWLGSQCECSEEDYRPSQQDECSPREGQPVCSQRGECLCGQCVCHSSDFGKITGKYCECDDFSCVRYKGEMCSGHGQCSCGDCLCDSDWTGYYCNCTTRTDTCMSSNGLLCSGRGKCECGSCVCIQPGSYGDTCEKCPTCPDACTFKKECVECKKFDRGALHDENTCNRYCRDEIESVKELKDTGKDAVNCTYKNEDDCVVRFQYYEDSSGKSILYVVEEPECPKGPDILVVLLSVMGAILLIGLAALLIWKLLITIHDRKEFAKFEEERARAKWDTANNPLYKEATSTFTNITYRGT
T1 sequence (P08514 32-887 limits assumed): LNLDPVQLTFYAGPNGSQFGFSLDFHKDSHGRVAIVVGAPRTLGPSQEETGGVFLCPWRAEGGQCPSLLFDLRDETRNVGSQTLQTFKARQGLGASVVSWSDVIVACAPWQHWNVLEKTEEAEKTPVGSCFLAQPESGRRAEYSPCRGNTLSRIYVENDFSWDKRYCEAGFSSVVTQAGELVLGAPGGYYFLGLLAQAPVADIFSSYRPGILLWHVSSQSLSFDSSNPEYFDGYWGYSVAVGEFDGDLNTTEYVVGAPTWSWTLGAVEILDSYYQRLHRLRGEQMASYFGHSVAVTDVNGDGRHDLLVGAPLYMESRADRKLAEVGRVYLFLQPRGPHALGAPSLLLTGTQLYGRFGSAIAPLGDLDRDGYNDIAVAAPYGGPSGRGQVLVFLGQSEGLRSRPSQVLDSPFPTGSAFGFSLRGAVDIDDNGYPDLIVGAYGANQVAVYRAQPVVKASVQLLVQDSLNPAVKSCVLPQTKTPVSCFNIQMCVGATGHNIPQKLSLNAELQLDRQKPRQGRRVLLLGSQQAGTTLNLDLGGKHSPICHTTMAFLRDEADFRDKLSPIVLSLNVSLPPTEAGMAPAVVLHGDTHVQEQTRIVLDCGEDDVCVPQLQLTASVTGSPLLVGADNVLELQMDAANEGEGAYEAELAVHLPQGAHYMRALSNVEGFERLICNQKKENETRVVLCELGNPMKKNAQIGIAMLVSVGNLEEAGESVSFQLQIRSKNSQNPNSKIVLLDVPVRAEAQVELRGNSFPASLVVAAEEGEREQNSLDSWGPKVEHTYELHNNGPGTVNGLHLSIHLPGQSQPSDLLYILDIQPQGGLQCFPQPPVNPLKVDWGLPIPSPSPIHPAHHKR
T1 sequence (P08514 891-1039 limits assumed): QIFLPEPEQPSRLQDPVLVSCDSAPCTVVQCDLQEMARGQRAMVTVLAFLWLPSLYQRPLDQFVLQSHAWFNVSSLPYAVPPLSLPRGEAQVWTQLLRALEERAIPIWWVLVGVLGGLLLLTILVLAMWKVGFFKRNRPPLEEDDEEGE

C[C@@H](CC(=O)O)CC(=O)N1CCC2(CC1)CCN(c1ccc(C(=N)N)cc1)C2=O [(R)-5-[2-(4-Carbamimidoyl-phenyl)-1-oxo-2,8-diaza-spiro[4.5]dec-8-yl]-3-methyl-5-oxo-pentanoic acid]
IC50 [1]: 0.112 µM

CCOC(=O)CCNC(=O)N[C@H]1CCN(c2ccc(C(=N)N)cc2)C1=O [SC-57099B]
IC50 [2]: 0.068 µM
IC50 [3]: 0.166 µM
IC50 [1]: 0.137 µM
IC50 [4]: 0.362 µM

N=C(N)c1ccc(N2CCC3(CCN(C(=O)CCCC(=O)O)CC3)C2=O)cc1 [5-[2-(4-Carbamimidoyl-phenyl)-1-oxo-2,8-diaza-spiro[4.5]dec-8-yl]-5-oxo-pentanoic acid]
IC50 [2]: 0.054 µM
IC50 [3]: 0.123 µM
IC50 [1]: 0.168 µM
IC50 [4]: 0.368 µM
IC50 [5]: 0.175 µM
IC50 [6]: 0.464 µM

N=C(N)c1ccc(N2CCC3(CCN(C(=O)NCCC(=O)O)CC3)C2=O)cc1 [3-{[2-(4-Carbamimidoyl-phenyl)-1-oxo-2,8-diaza-spiro[4.5]decane-8-carbonyl]-amino}-propionic acid]
IC50 [2]: 0.053 µM
IC50 [7]: 0.11 µM
IC50 [3]: 0.12 µM
IC50 [4]: 0.365 µM

N=C(N)c1ccc(N2CC3(CCN(C(=O)CCCC(=O)O)CC3)NC2=O)cc1 [5-[3-(4-Carbamimidoyl-phenyl)-2-oxo-1,3,8-triaza-spiro[4.5]dec-8-yl]-5-oxo-pentanoic acid]
IC50 [2]: 1.02 µM

CN1C(=O)N(c2ccc(C(=N)N)cc2)C(=O)C12CCN(C(=O)CC(CC(=O)O)c1ccccc1)CC2 (centres undefined) [5-[3-(4-Carbamimidoyl-phenyl)-1-methyl-2,4-dioxo-1,3,8-triaza-spiro[4.5]dec-8-yl]-5-oxo-3-phenyl-pentanoic acid]
IC50 [2]: 0.12 µM

CN1C(=O)N(c2ccc(C(=N)N)cc2)CC12CCN(C(=O)NCCC(=O)O)CC2 [3-{[3-(4-Carbamimidoyl-phenyl)-1-methyl-2-oxo-1,3,8-triaza-spiro[4.5]decane-8-carbonyl]-amino}-propionic acid]
IC50 [2]: 0.212 µM

C[C@H](CC(=O)O)CC(=O)N1CCC2(CC1)CCN(c1ccc(C(=N)N)cc1)C2=O [(S)-5-[2-(4-Carbamimidoyl-phenyl)-1-oxo-2,8-diaza-spiro[4.5]dec-8-yl]-3-methyl-5-oxo-pentanoic acid]
IC50 [2]: 0.35 µM

N=C(N)c1ccc(N2CC3(CCN(C(=O)NCCC(=O)O)CC3)CC2=O)cc1 [3-{[2-(4-Carbamimidoyl-phenyl)-3-oxo-2,8-diaza-spiro[4.5]decane-8-carbonyl]-amino}-propionic acid]
IC50 [2]: 0.171 µM

Cc1noc(C)c1S(=O)(=O)N[C@@H](CCC(=O)N1CCC2(CC1)CCN(c1ccc(C(=N)N)cc1)C2=O)C(=O)O [5-[2-(4-Carbamimidoyl-phenyl)-1-oxo-2,8-diaza-spiro[4.5]dec-8-yl]-2-(3,5-dimethyl-isoxazole-4-sulfonylamino)-5-oxo-pentanoic acid]
IC50 [2]: 0.036 µM

N=C(N)c1ccc(N2C(=O)CC3(CCN(C(=O)CCCC(=O)O)CC3)C2=O)cc1 [5-[2-(4-Carbamimidoyl-phenyl)-1,3-dioxo-2,8-diaza-spiro[4.5]dec-8-yl]-5-oxo-pentanoic acid]
IC50 [2]: 0.73 µM

N=C(N)c1ccc(N2C(=O)NC3(CCN(C(=O)CCCC(=O)O)CC3)C2=O)cc1 [5-[3-(4-Carbamimidoyl-phenyl)-2,4-dioxo-1,3,8-triaza-spiro[4.5]dec-8-yl]-5-oxo-pentanoic acid]
IC50 [2]: 0.586 µM

CN1C(=O)N(c2ccc(C(=N)N)cc2)C(=O)C12CCN(C(=O)NCCC(=O)O)CC2 [3-{[3-(4-Carbamimidoyl-phenyl)-1-methyl-2,4-dioxo-1,3,8-triaza-spiro[4.5]decane-8-carbonyl]-amino}-propionic acid]
IC50 [2]: 0.222 µM

CCOC(=O)COC1CCN(C(=O)[C@H](C)NC(=O)c2ccc(C(=N)NO)cc2)CC1 [((S)-1-{2-[4-(N-Hydroxycarbamimidoyl)-benzoylamino]-propionyl}-piperidin-4-yloxy)-acetic acid ethyl ester]
IC50 [2]: 0.051 µM
IC50 [3]: 0.147 µM
IC50 [1]: 0.072 µM
IC50 [4]: 0.182 µM

N=C(N)c1ccc(N2CCC3(CCN(C(=O)COCC(=O)O)CC3)C2=O)cc1 [{2-[2-(4-Carbamimidoyl-phenyl)-1-oxo-2,8-diaza-spiro[4.5]dec-8-yl]-2-oxo-ethoxy}-acetic acid]
IC50 [2]: 0.108 µM
IC50 [7]: 0.26 µM
IC50 [3]: 0.273 µM
IC50 [4]: 0.691 µM
IC50 [5]: 0.393 µM
IC50 [6]: 0.812 µM
